Patent US8916711B2, “Imidazothiazole-chalcone derivatives as potential anticancer agents and process for the preparation thereof” (Council of Scientific and Industrial Research, priority 2009, dated 2014)
Like-named read-outs stand apart in the source and are kept apart here.

What was measured:
Format in all cases: cell-based
[1] = tested on: PC-3; experiment: NCI in vitro cytotoxicity (SRB, 48 h), Prostate panel; details: Homo sapiens; PC-3, Prostate; 48 h exposure
[2] = tested on: sixty human tumour cell lines; experiment: NCI in vitro cytotoxicity, all panels; details: for CC50: read-out: Log10 LC50 mean graph midpoint (MG_MID) (converted)
[3] = tested on: NCI-H226; experiment: NCI in vitro cytotoxicity (SRB, 48 h), Non-small cell lung panel; details: Homo sapiens, 48 h exposure
[4] = tested on: OVCAR-3; experiment: NCI in vitro cytotoxicity (SRB, 48 h), Ovarian panel; details: Homo sapiens; OVCAR-3, Ovarian; 48 h exposure
[5] = tested on: T-47D; experiment: NCI in vitro cytotoxicity (SRB, 48 h), Breast panel; details: Homo sapiens, T47D, 48 h exposure
[6] = tested on: TK-10; experiment: NCI in vitro cytotoxicity (SRB, 48 h), Renal panel; details: Homo sapiens; TK-10, Renal; 48 h exposure
[7] = tested on: A549/ATCC; experiment: NCI in vitro cytotoxicity (SRB, 48 h), Non-small cell lung panel; details: Homo sapiens, 48 h exposure
[8] = tested on: SK-MEL-5; experiment: NCI in vitro cytotoxicity (SRB, 48 h), Melanoma panel; details: Homo sapiens; SK-MEL-5, Melanoma; 48 h exposure
[9] = tested on: HCC-2998; experiment: NCI in vitro cytotoxicity (SRB, 48 h), Colon panel; details: Homo sapiens
[10] = tested on: IGROV1; experiment: NCI in vitro cytotoxicity (SRB, 48 h), Ovarian panel; details: Homo sapiens, IGROV-1; IGROV1, Ovarian; 48 h exposure
[11] = tested on: Breast cancer cell lines; experiment: NCI in vitro cytotoxicity, whole panel; details: Homo sapiens; for GI50 / CC50: Breast, average of six to eight cell lines; for GI50: read-out: Log10 GI50 (converted); for CC50: read-out: Log10 LC50 (converted); for IC50: exposure period of at least 48 hrs, read-out: IC50, range over breast cell lines
[12] = tested on: Renal cancer cell lines; experiment: NCI in vitro cytotoxicity, whole panel; details: Homo sapiens; for CC50: read-out: Log10 LC50 (converted)
[13] = tested on: CAKI-1; experiment: NCI in vitro cytotoxicity (SRB, 48 h), Renal panel; details: Homo sapiens; CAKI-1, Renal; 48 h exposure
[14] = tested on: RPMI-8226; experiment: NCI in vitro cytotoxicity (SRB, 48 h), Leukemia panel; details: Homo sapiens; RPMI-8226, Leukemia; 48 h exposure
[15] = tested on: SF-268; experiment: NCI in vitro cytotoxicity (SRB, 48 h), CNS panel; details: Homo sapiens; SF-268, CNS; 48 h exposure
[16] = tested on: NCI-H522; experiment: NCI in vitro cytotoxicity (SRB, 48 h), Non-small cell lung panel; details: Homo sapiens, 48 h exposure
[17] = tested on: UACC-62; experiment: NCI in vitro cytotoxicity (SRB, 48 h), Melanoma panel; details: Homo sapiens; UACC-62, Melanoma; 48 h exposure
[18] = tested on: 786-0; experiment: NCI in vitro cytotoxicity (SRB, 48 h), Renal panel; details: Homo sapiens; 786-0, Renal; 48 h exposure
[19] = tested on: SK-MEL-28; experiment: NCI in vitro cytotoxicity (SRB, 48 h), Melanoma panel; details: Homo sapiens; SK-MEL-28, Melanoma; 48 h exposure
[20] = tested on: HCT-116; experiment: NCI in vitro cytotoxicity (SRB, 48 h), Colon panel; details: Homo sapiens; for IC50: HCT-116, HCT116, Table 4, read-out: Comparative efficacy
[21] = tested on: NCI-H460; experiment: NCI in vitro cytotoxicity (SRB, 48 h), Non-small cell lung panel; details: Homo sapiens, 48 h exposure
[22] = tested on: LOX IMVI; experiment: NCI in vitro cytotoxicity (SRB, 48 h), Melanoma panel; details: Homo sapiens, 48 h exposure
[23] = tested on: NCI-H322M; experiment: NCI in vitro cytotoxicity (SRB, 48 h), Non-small cell lung panel; details: Homo sapiens, 48 h exposure
[24] = tested on: SNB-75; experiment: NCI in vitro cytotoxicity (SRB, 48 h), CNS panel; details: Homo sapiens; SNB-75, CNS; 48 h exposure
[25] = tested on: U251; experiment: NCI in vitro cytotoxicity (SRB, 48 h), CNS panel; details: Homo sapiens, U-251, 48 h exposure
[26] = tested on: SK-OV-3; experiment: NCI in vitro cytotoxicity (SRB, 48 h), Ovarian panel; details: Homo sapiens; SK-OV-3, Ovarian; 48 h exposure
[27] = tested on: RXF 393; experiment: NCI in vitro cytotoxicity (SRB, 48 h), Renal panel; details: Homo sapiens; RXF 393, Renal; 48 h exposure
[28] = tested on: SNB-19; experiment: NCI in vitro cytotoxicity (SRB, 48 h), CNS panel; details: Homo sapiens; SNB-19, CNS; 48 h exposure
[29] = tested on: MDAMB-435; experiment: NCI in vitro cytotoxicity (SRB, 48 h), Melanoma panel; details: Homo sapiens, MDA-MB-435; MDAMB-435, Melanoma; 48 h exposure
[30] = tested on: MOLT-4; experiment: NCI in vitro cytotoxicity (SRB, 48 h), Leukemia panel; details: Homo sapiens; MOLT-4, Leukemia; 48 h exposure
[31] = tested on: HOP-62; experiment: NCI in vitro cytotoxicity (SRB, 48 h), Non-small cell lung panel; details: Homo sapiens; HOP-62, Non-small cell lung; 48 h exposure
[32] = tested on: UO-31; experiment: NCI in vitro cytotoxicity (SRB, 48 h), Renal panel; details: Homo sapiens; UO-31, Renal; 48 h exposure
[33] = tested on: SN12C; experiment: NCI in vitro cytotoxicity (SRB, 48 h), Renal panel; details: Homo sapiens, 48 h exposure
[34] = tested on: Melanoma cell lines; experiment: NCI in vitro cytotoxicity, whole panel; details: Homo sapiens; for CC50: read-out: Log10 LC50 (converted)
[35] = tested on: HT29; experiment: NCI in vitro cytotoxicity (SRB, 48 h), Colon panel; details: Homo sapiens, HT-29, 48 h exposure
[36] = tested on: NCI-H23; experiment: NCI in vitro cytotoxicity (SRB, 48 h), Non-small cell lung panel; details: Homo sapiens, 48 h exposure
[37] = tested on: HS 578T; experiment: NCI in vitro cytotoxicity (SRB, 48 h), Breast panel; details: Homo sapiens, 48 h exposure
[38] = tested on: MDA-MB-468; experiment: as above; details: Homo sapiens; MDA-MB-468, Breast; 48 h exposure
[39] = Homo sapiens, sixty cell lines, nine panels, read-out: GI50 against sixty cell lines in nine cell panels
[40] = human tumour cell lines, read-out: Log10 GI50 mean graph midpoint (MG_MID) (converted)
[41] = Renal, average of six to eight cell lines, read-out: Log10 GI50 (converted)
[42] = Renal, average of six to eight cell lines
[43] = exposure period of at least 48 hrs, read-out: GI50, range over renal cell lines
[44] = Melanoma, average of six to eight cell lines, read-out: Log10 GI50 (converted)
[45] = Melanoma, average of six to eight cell lines
[46] = exposure period of at least 48 hrs, read-out: GI50, range over melanoma cell lines

COc1cc(C(=O)/C=C/c2c(C(F)(F)F)nc3sccn23)cc(OC)c1OC [Compound 7f, (E)-3-(6-(trifluoromethyl)imidazo[2,1-b]thiazol-5-yl)-1-(3,4,5-trimethoxyphenyl)prop-2-en-1-one] was tested, and the GI50 [1] was 2660 nM, the GI50 [2, 39] was < 9000 nM and the “Log10 TGI mean graph midpoint (MG_MID)” value ([2]; human tumour cell lines) was −5.28. For the same compound, the “in vitro cytotoxicity, in words” value ([2]; human tumour cell lines) was “significant cytotoxicity”, the GI50 [2, 40] was 1910 nM and the CC50 ([2]; human tumour cell lines) was 19100 nM. It also gave a GI50 [3] of 2170 nM, a GI50 [4] of 1860 nM and a GI50 [5] of 2120 nM. For the same compound, the GI50 [6] was 2300 nM, the GI50 [7] was 3440 nM and the GI50 [8] was 1590 nM. For the same compound, the GI50 ([9]; HCC-2998, Colon, 48 h exposure) was 1710 nM, the GI50 ([9]; HCC-2998, colon) was 1710 nM and the GI50 [10] was 2660 nM. It also gave a GI50 [11] of 2090 nM, a CC50 [11] of 24500 nM and an IC50 [11] of 1250 to 2920 nM. The GI50 [12, 41] was 1860 nM, the CC50 [12, 42] was 10500 nM and the GI50 [12, 43] was 1560 to 2300 nM. It also gave a GI50 [13] of 1760 nM, a GI50 [14] of 1080 nM and a GI50 [15] of 1740 nM. For the same compound, the GI50 [16] was 2030 nM, the GI50 [17] was 1520 nM and the GI50 [18] was 1760 nM. It also gave a GI50 [19] of 1690 nM, an IC50 [20] of 1010 nM and a GI50 ([20]; HCT-116, Colon, 48 h exposure) of 1010 nM. The GI50 ([20]; HCT-116, colon) was 1010 nM, the GI50 [21] was 1650 nM and the GI50 [22] was 1360 nM. It also gave a GI50 [23] of 1960 nM, a GI50 [24] of 1870 nM and a GI50 [25] of 1380 nM. For the same compound, the GI50 [26] was 2870 nM, the GI50 [27] was 2020 nM and the GI50 [28] was 2670 nM. It also gave a GI50 [29] of 1610 nM, a GI50 [30] of 1920 nM and a GI50 [31] of 1930 nM. It also gave a GI50 [32] of 1870 nM, a GI50 [33] of 1560 nM and a GI50 [34, 44] of 1700 nM. The CC50 [34, 45] was 9330 nM, the GI50 [34, 46] was 1360 to 2260 nM and the GI50 [35] was 1830 nM. For the same compound, the GI50 [36] was 1720 nM.

In the case of COc1ccc(C(=O)/C=C/c2c(C(F)(F)F)nc3sccn23)cc1OC [Compound 8f, (E)-1-(3,4-dimethoxyphenyl)-3-(6-(trifluoromethyl)imidazo[2,1-b]thiazol-5-yl) prop-2-en-1-one], the GI50 [1] is reported as 5390 nM, the GI50 [2, 39] is reported as < 9000 nM and the “Log10 TGI mean graph midpoint (MG_MID)” value ([2]; human tumour cell lines) is reported as −4.22. For the same compound, the “in vitro cytotoxicity, in words” value ([2]; human tumour cell lines) was “significant cytotoxicity”, the GI50 [2, 40] was 3090 nM and the CC50 ([2]; human tumour cell lines) was 100000 nM. It also gave a GI50 [3] of 6950 nM, a GI50 [4] of 2120 nM and a GI50 [5] of 2900 nM. For the same compound, the GI50 [6] was 8760 nM, the GI50 [7] was 4650 nM and the GI50 [8] was 4200 nM. For the same compound, the GI50 ([9]; HCC-2998, Colon, 48 h exposure) was 5070 nM, the GI50 [10] was 3150 nM and the GI50 [11] was 2950 nM. For the same compound, the CC50 [11] was ≥ 100000 nM, the IC50 [11] was 760 to 6180 nM and the GI50 [12, 41] was 4900 nM. For the same compound, the CC50 [12, 42] was ≥ 100000 nM, the GI50 [12, 43] was 2460 to 8760 nM and the GI50 [13] was 2460 nM. It also gave a GI50 [14] of 1620 nM, a GI50 [15] of 3440 nM and a GI50 [16] of 2910 nM. The GI50 [17] was 4850 nM, the GI50 [18] was 5670 nM and the GI50 [19] was 8480 nM. For the same compound, the GI50 [37] was 2510 nM, the IC50 [20] was 1400 nM and the GI50 ([20]; HCT-116, Colon, 48 h exposure) was 1400 nM. It also gave a GI50 [21] of 1940 nM, a GI50 [22] of 600 nM and a GI50 [23] of 3170 nM. It also gave a GI50 [24] of 6870 nM, a GI50 [25] of 1870 nM and a GI50 [26] of 3410 nM. It also gave a GI50 [27] of 2510 nM, a GI50 [28] of 4250 nM and a GI50 [38] of 6180 nM. It also gave a GI50 [29] of 1850 nM, a GI50 [30] of 2220 nM and a GI50 [31] of 6000 nM. It also gave a GI50 [32] of 8470 nM, a GI50 [33] of 2980 nM and a GI50 [34, 44] of 3630 nM. The CC50 [34, 45] was ≥ 100000 nM, the GI50 [34, 46] was 600 to 8480 nM and the GI50 [35] was 2010 nM. For the same compound, the GI50 [36] was 2780 nM.
